This is an account of results in publication PMC4472245, “Alternative divalent cations (Zn^2+, Co^2+, and Mn^2+) are not mutagenic at conditions optimal for HIV-1 reverse transcriptase activity” (BMC Biochemistry, 2015).

Assay [1] concerns the target T1, HIV RT (HIV-1 reverse transcriptase, p66/p51) (HIV-1 M:B_HXB2R, UniProt P04585).
T1 construct: gene gag-pol
The settings on record: read-out: ^d K m / μM, 0.4 mM free Zn2+ instead of Mg2+, DNA primer-template, pH 7.7, 37 °C.
Excerpt: steady-state running-start incorporation, gel on HIV RT (HIV-1 reverse transcriptase, p66/p51)

Assay [2] concerns the target T1, HIV RT (HIV-1 reverse transcriptase, p66/p51). As to conditions: read-out: ^d K m / μM; 0.4 mM free Zn2+ instead of Mg2+; DNA primer-template with matched C.G 3' end; next correct nucleotide; pH 7.7, 37 °C, 80 mM KCl.

Where two headings read alike, the source gives them in different places.

As to `Cc1cn([C@H]2C[C@H](O)[C@@H](COP(=O)(O)OP(=O)(O)OP(=O)(O)O)O2)c(=O)[nH]c1=O` [dTTP], the Km in assay [1] (misinsertion opposite template C (C.T mismatch), 55 μM dATP) was determined as 244 ± 102 µM.
In the case of `Nc1ncnc2c1ncn2[C@H]1C[C@H](O)[C@@H](COP(=O)(O)OP(=O)(O)OP(=O)(O)O)O1` [dATP], the Km in assay [1] (misinsertion opposite template C (C.A mismatch)) is 518 ± 43 µM.
For `Nc1nc2c(ncn2[C@H]2C[C@H](O)[C@@H](COP(=O)(O)OP(=O)(O)OP(=O)(O)O)O2)c(=O)[nH]1` [dGTP], the Km in assay [1] (correct insertion opposite template C (C.G), 55 μM dATP) was 0.19 ± 0.09 µM.
In the case of `Nc1ccn([C@H]2C[C@H](O)[C@@H](COP(=O)(O)OP(=O)(O)OP(=O)(O)O)O2)c(=O)n1` [dCTP], the Km in assay [2] is 0.04 ± 0.01 µM.
